Laboratory results: the supplement of paper PMC10307832

compound: COc1cc2nc(N3CCCN(C)CC3)nc(NC3CCN(Cc4ccccc4)CC3)c2cc1OC + O=C(CCCCCCC(=O)Nc1ccccc1)NO [Vorinostat] (partner 1 µM); assay: relative viability (nuclei count vs DMSO), 5 days (fraction); higher = more cells survive; details: first compound 0.2 µM
Procedure, shortened: (§1)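 Five library-drug doses in √10 steps were combined with a fixed anchor-drug dose, or a single drug was given alone, by pin tool to lung cancer cell lines in 1536-well plates the day after seeding. Nuclei were stained and counted after 5 days. Relative viability is the nuclei count in treated wells over that in vehicle wells, taken as the median of duplicate plates.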

Cell Line	relative viability
COR-L23	0.536
COR-L 105	0.805
IA-LM	0.983
LOU-NH91	0.942
ChaGo-K-1	0.784
NCI-H2170	0.858
NCI-H2405	1.01
HOP-62	0.658
HCC-44	1.11
NCI-H522	0.803
LU99A	0.473
BEN	0.608
HARA	0.584
SW 900	0.365
HCC-78	0.495
NCI-H322M	0.838
LCLC-97TM1	0.801
NCI-H2009	0.803
A-427	0.865

same assay, conditions: first compound 0.6325 µM

Cell Line	relative viability
NCI-H2342	0.729
NCI-H727	1.14
NCI-H1650	0.656
NCI-H1993	0.798
SW 1573	0.574
NCI-H838	0.695
LCLC-103H	0.754
NCI-H520	0.77
NCI-H2126	0.802
EMC-BAC-2	0.427
NCI-H2085	0.954
HCC-366	0.33
NCI-H1666	0.943
NCI-H596	0.717
LK-2	0.194
NCI-H2087	0.618
NCI-H1648	0.562
SK-MES-1	1.04
H3255	0.796

Cell Line	relative viability
COR-L23	0.406
COR-L 105	1.04
IA-LM	0.876
LOU-NH91	1.06
ChaGo-K-1	0.749
NCI-H2170	0.765
NCI-H2405	0.989
HOP-62	0.366
HCC-44	1.12
NCI-H522	0.884
LU99A	0.546
BEN	0.54
HARA	0.63
SW 900	0.713
HCC-78	0.442
NCI-H322M	0.939
LCLC-97TM1	0.649
NCI-H2009	0.762
A-427	0.827

same assay, conditions: first compound 2 µM

Cell Line	relative viability
NCI-H2342	0.792
NCI-H727	1.15
NCI-H1650	0.747
NCI-H1993	0.855
SW 1573	0.684
NCI-H838	0.938
LCLC-103H	0.844
NCI-H520	0.586
NCI-H2126	0.688
EMC-BAC-2	0.448
NCI-H2085	0.802
HCC-366	0.254
NCI-H1666	0.958
NCI-H596	0.591
LK-2	0.364
NCI-H2087	0.521
SK-MES-1	1.22
H3255	0.858
COR-L23	0.561

Cell Line	relative viability
COR-L 105	0.728
IA-LM	0.908
LOU-NH91	0.845
ChaGo-K-1	0.779
NCI-H2170	0.86
NCI-H2405	1.02
HOP-62	0.638
HCC-44	1.17
NCI-H522	0.879
LU99A	0.517
BEN	0.636
HARA	0.515
SW 900	0.565
HCC-78	0.462
NCI-H322M	0.855
LCLC-97TM1	1
NCI-H2009	0.767
A-427	0.882

same assay, conditions: first compound 6.325 µM

Cell Line	relative viability
NCI-H2342	0.757
NCI-H727	1.07
NCI-H1650	0.465
NCI-H1993	0.661
SW 1573	0.199
NCI-H838	0.626
LCLC-103H	0.656
NCI-H520	0.209
NCI-H2126	0.69
EMC-BAC-2	0.508
NCI-H2085	0.724
HCC-366	0.284
NCI-H1666	1.06
NCI-H596	0.57
LK-2	0.209
NCI-H2087	0.611
NCI-H1648	0.616
SK-MES-1	0.472
H3255	0.772

Cell Line	relative viability
COR-L23	0.286
COR-L 105	0.595
IA-LM	0.975
LOU-NH91	0.827
ChaGo-K-1	0.717
NCI-H2170	0.755
NCI-H2405	0.976
HOP-62	0.435
HCC-44	1.12
NCI-H522	0.676
LU99A	0.44
BEN	0.552
HARA	0.51
SW 900	0.375
HCC-78	0.429
NCI-H322M	0.868
LCLC-97TM1	0.69
NCI-H2009	0.569
A-427	0.851

compound: Cc1cc([C@@H](C)Nc2ccccc2C(=O)O)c2nc(N3CCOCC3)cc(=O)n2c1 [AZD6482] + Cc1cc(Nc2cc(N3CCN(C)CC3)nc(Sc3ccc(NC(=O)C4CC4)cc3)n2)n[nH]1 [Tozasertib] (partner 0.1 µM); assay: as above; details: first compound 0.08 µM
Procedure, shortened: as §1

Cell Line	relative viability
NCI-H2342	0.465
NCI-H1623	0.384
NCI-H727	0.587
NCI-H1650	0.36
NCI-H1993	0.446
SW 1573	0.158
NCI-H838	0.264
LCLC-103H	0.486
NCI-H520	0.39
NCI-H2126	0.786
EMC-BAC-2	0.285
NCI-H2085	0.656
HCC-366	0.108
NCI-H1666	0.544
NCI-H596	0.854
LK-2	0.142
NCI-H2087	0.282
NCI-H1648	0.538
SK-MES-1	0.877

Cell Line	relative viability
H3255	0.607
COR-L23	0.183
COR-L 105	0.362
LOU-NH91	0.551
ChaGo-K-1	0.206
NCI-H2170	0.678
NCI-H2405	0.465
HOP-62	0.374
HCC-44	0.945
NCI-H522	0.541
LU99A	0.281
BEN	0.463
HARA	0.212
SW 900	0.559
HCC-78	0.327
NCI-H322M	0.442
LCLC-97TM1	0.206
NCI-H2009	0.677
A-427	0.219

same assay, conditions: first compound 0.253 µM

Cell Line	relative viability
NCI-H2342	0.432
NCI-H1623	0.382
NCI-H727	0.645
NCI-H1650	0.378
NCI-H1993	0.609
SW 1573	0.17
NCI-H838	0.266
LCLC-103H	0.456
NCI-H520	0.344
NCI-H2126	0.804
EMC-BAC-2	0.288
NCI-H2085	0.539
HCC-366	0.0944
NCI-H1666	0.701
NCI-H596	1.16
LK-2	0.162
NCI-H2087	0.268
NCI-H1648	0.463
SK-MES-1	0.939

Cell Line	relative viability
H3255	0.595
COR-L23	0.192
COR-L 105	0.348
LOU-NH91	0.66
ChaGo-K-1	0.22
NCI-H2170	0.681
HOP-62	0.382
HCC-44	0.895
NCI-H522	0.439
LU99A	0.294
BEN	0.526
HARA	0.108
SW 900	0.506
HCC-78	0.335
NCI-H322M	0.461
LCLC-97TM1	0.208
NCI-H2009	0.733
A-427	0.214

same assay, conditions: first compound 0.8 µM

Cell Line	relative viability
NCI-H2342	0.488
NCI-H1623	0.397
NCI-H727	0.571
NCI-H1650	0.303
NCI-H1993	0.55
SW 1573	0.184
NCI-H838	0.243
LCLC-103H	0.472
NCI-H520	0.344
NCI-H2126	0.669
EMC-BAC-2	0.274
NCI-H2085	0.407
HCC-366	0.0731
NCI-H1666	0.592
NCI-H596	0.725
LK-2	0.15
NCI-H2087	0.221
NCI-H1648	0.588
SK-MES-1	0.86

Cell Line	relative viability
H3255	0.42
COR-L23	0.162
COR-L 105	0.352
LOU-NH91	0.605
ChaGo-K-1	0.219
NCI-H2170	0.615
NCI-H2405	0.668
HOP-62	0.311
HCC-44	0.88
NCI-H522	0.623
LU99A	0.253
BEN	0.472
HARA	0.0865
SW 900	0.561
HCC-78	0.271
NCI-H322M	0.453
LCLC-97TM1	0.168
NCI-H2009	0.637
A-427	0.188

same assay, conditions: first compound 2.53 µM

Cell Line	relative viability
NCI-H2342	0.372
NCI-H1623	0.419
NCI-H727	0.457
NCI-H1650	0.336
NCI-H1993	0.527
SW 1573	0.123
NCI-H838	0.192
LCLC-103H	0.412
NCI-H520	0.221
NCI-H2126	0.423
EMC-BAC-2	0.287
NCI-H2085	0.393
HCC-366	0.12
NCI-H1666	0.554
NCI-H596	0.772
LK-2	0.182
NCI-H1648	0.351
SK-MES-1	0.571

Cell Line	relative viability
H3255	0.442
COR-L23	0.153
COR-L 105	0.336
LOU-NH91	0.546
ChaGo-K-1	0.2
NCI-H2170	0.643
NCI-H2405	0.53
HOP-62	0.363
HCC-44	0.957
NCI-H522	0.523
LU99A	0.263
BEN	0.493
HARA	0.111
HCC-78	0.317
NCI-H322M	0.319
LCLC-97TM1	0.158
NCI-H2009	0.503

same assay, conditions: first compound 8 µM

Cell Line	relative viability
NCI-H2342	0.359
NCI-H1623	0.371
NCI-H727	0.449
NCI-H1650	0.393
NCI-H1993	0.562
SW 1573	0.143
NCI-H838	0.222
LCLC-103H	0.303
NCI-H520	0.221
NCI-H2126	0.561
EMC-BAC-2	0.272
NCI-H2085	0.351
HCC-366	0.063
NCI-H1666	0.648
NCI-H596	0.666
LK-2	0.168
NCI-H2087	0.205
NCI-H1648	0.409
SK-MES-1	0.549

Cell Line	relative viability
H3255	0.594
COR-L23	0.171
COR-L 105	0.344
LOU-NH91	0.496
ChaGo-K-1	0.206
NCI-H2170	0.47
NCI-H2405	0.403
HOP-62	0.332
HCC-44	0.829
NCI-H522	0.543
LU99A	0.247
BEN	0.495
HARA	0.0791
SW 900	0.567
HCC-78	0.227
NCI-H322M	0.384
LCLC-97TM1	0.128
NCI-H2009	0.521
A-427	0.209
